Assay results taken from PMC8151276, “An Integrated Approach toward NanoBRET Tracers for Analysis of GPCR Ligand Engagement” (Molecules, 2021).

Experiments:
Type in all cases: binding
VIPR2 = target: T1, VIPR2 (Homo sapiens, UniProt P41587); assay: NanoBRET screen HiBiT-VIPR2 in HEK293
T1 construct: purchased Promega (in-house HiBiT-GPCR construct library, NanoBRET)
T1 sequence (P41587 24-438): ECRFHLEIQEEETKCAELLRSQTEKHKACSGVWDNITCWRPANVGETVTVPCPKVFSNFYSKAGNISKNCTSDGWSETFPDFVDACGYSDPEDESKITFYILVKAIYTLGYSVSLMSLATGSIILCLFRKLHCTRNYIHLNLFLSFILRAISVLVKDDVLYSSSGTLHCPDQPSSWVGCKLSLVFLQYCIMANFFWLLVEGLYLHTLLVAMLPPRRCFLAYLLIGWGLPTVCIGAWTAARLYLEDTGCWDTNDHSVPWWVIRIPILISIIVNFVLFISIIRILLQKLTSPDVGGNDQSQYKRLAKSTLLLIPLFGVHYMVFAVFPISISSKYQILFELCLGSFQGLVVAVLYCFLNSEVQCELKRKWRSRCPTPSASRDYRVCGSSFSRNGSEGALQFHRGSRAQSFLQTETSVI
Experimental: (§1) Each tracer candidate was screened across the entire library of HiBiT-GPCR constructs using NanoBRET as the detection modality. As depicted in Figure 4A, the specificity of interactions was evaluated through decrease in BRET due to competitive displacement of a bound tracer by excess parental compound. Each tracer was analyzed for binding to each HiBiT-GPCR fusion in the absence and in the presence of competing parental compound. Briefly, HEK293 cells were transfected with HiBiT-GPCR constructs diluted into promoterless DNA to reduce expression and maximize translocation to the cell surface. Each tracer candidate was then screened at concentrations of 1 μM and 0.1 μM across cells expressing these fusions. Cells were treated for 1.5 h with tracer either alone or in the presence of 20 μM competing parental compound (i.e., control). BRET was measured upon addition of purified LgBiT and subsequent complementation with HiBiT genetically fused to a GPCR. The specificity of interactions was assessed through a decrease in BRET signal due to competitive displacement of the bound tracer. To further gauge the robustness of these interactions, the fold response over the control (i.e., BRETtracer/BRETcontrol) was calculated. We chose a 1.5-fold response, which translates to ≥7-fold signal over noise as the minimal threshold required to score an interaction as positive. […]. Below we highlight the screening results obtained for our exemplary fluorescent tracers based on Clozapine, Amitriptyline and AZD1283.
(§2) HiBiT-GPCR DNA constructs were diluted in 10 mM Tris pH 8 to a final concentration of 0.01 μg/μL, arrayed in 96-well plates and stored at −20 °C. For transfection, HEK293 cells were suspended in Opti-MEM (without phenol red) supplemented with 2% fetal bovine serum (Seradigm) and 100 units/mL penicillin–streptomycin (Gibco) at a final concentration of 220,000 cells/mL and dispensed into white 96-well plates at 90 μL/well. Subsequent transfections and screens were carried using an Agilent Bravo Automated Liquid Handling Platform. First, the 96-well HiBiT DNA arrays were diluted 25-fold in Opti-MEM (without serum or phenol red) to a final concentration of 0.0004 μg/μL and 20 μL of the diluted DNAs were transferred into new 96-well plates. Next, promoterless carrier DNA (1 μg/μL) was diluted 25-fold (0.04 μg/μL) and then dispensed into the diluted arrays at 20 μL/well. Following brief mixing, Viafect transfection reagent (Promega) diluted 16-fold into Opti-MEM was dispensed into the plates at 40 μL/well. After mixing by pipetting, plates were incubated for 10 min on the pipetting station deck. The DNA-transfection reagent complexes were then added to plates containing cells. To facilitate the screen, 10 μL of DNA-transfection reagent complexes were added in duplicates to the top 4 and bottom 4 rows, resulting in two identical 48-well arrays per plate. Plates with transfected cells were incubated for 18–20 h at 37 °C/5% CO2. A screen of each tracer across the entire library using two different concentrations requires duplicate plates of transfected cells. Depending on the number of tracers being screened, transfections can be scaled up using the same ratios. The next day, for each tracer, four 20× screening solutions in tracer dilution buffer (Promega) were prepared: two duplicates at final concentration of 20 μM and two duplicates at a final concentration of 2 μM. A competing unmodified compound was added to one of each duplicate at a final concentration of 400 μM. The four resulting solutions were diluted 4-fold in Opti-MEM without serum or phenol red to generate 5× solutions (5 µM and 0.5 µM tracer +/− 100 μM competing compound). To screen the library, a BioTek MultiFlo FX liquid dispenser was used to dispense 22.5 µL of tracer solution to the top 4 rows and 22.5 µL tracer + competing compound solution to the 4 bottom rows. Plates were briefly mixed on an orbital shaker and incubated for 1.5 h at room temperature. […]

HCRTR1 = target: T2, HCRTR1 (Homo sapiens, UniProt O43613); assay: NanoBRET screen HiBiT-HCRTR1 in HEK293
T2 construct: purchased Promega (in-house HiBiT-GPCR construct library, NanoBRET)
T2 sequence (O43613 1-425): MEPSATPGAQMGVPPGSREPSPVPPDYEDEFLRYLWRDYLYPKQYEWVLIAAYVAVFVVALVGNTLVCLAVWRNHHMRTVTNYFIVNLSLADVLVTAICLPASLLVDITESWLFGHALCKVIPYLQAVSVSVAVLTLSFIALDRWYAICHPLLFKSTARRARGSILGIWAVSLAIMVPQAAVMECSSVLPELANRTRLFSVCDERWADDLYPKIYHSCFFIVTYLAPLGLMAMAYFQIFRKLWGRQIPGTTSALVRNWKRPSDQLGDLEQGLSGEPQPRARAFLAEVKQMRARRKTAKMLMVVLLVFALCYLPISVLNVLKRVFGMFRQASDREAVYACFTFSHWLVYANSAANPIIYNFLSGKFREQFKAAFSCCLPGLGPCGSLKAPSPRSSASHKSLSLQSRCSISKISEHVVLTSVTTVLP
Experimental: as §1, §2

BRS3 = target: T3, BRS3 (Homo sapiens, UniProt P32247); assay: NanoBRET screen HiBiT-BRS3 in HEK293
T3 construct: purchased Promega (in-house HiBiT-GPCR construct library, NanoBRET)
T3 sequence (P32247 1-399): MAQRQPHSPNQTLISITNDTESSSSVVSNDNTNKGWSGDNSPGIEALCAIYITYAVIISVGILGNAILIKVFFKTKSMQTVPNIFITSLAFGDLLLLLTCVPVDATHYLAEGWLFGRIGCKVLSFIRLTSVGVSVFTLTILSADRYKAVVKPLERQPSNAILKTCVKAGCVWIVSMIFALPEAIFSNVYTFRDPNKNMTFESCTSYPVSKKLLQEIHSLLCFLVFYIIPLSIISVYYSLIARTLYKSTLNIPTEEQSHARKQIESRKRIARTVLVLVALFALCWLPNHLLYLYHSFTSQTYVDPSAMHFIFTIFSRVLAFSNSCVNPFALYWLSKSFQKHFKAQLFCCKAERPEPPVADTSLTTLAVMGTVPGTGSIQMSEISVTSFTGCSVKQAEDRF
Experimental: as §1, §2

Row | Structure (SMILES) | NanoBRET Fold Response (VIPR2; VIPR2, 0.1μM tracer) | NanoBRET Fold Response (VIPR2; VIPR2, 1μM tracer) | NanoBRET Fold Response (HCRTR1; HCRTR1, 0.1μM tracer) | NanoBRET Fold Response (HCRTR1; HCRTR1, 1μM tracer) | NanoBRET Fold Response (BRS3; BRS3, 0.1μM tracer) | NanoBRET Fold Response (BRS3; BRS3, 1μM tracer) | NanoBRET Fold Response (VIPR2; VIPR2, tracer 0.1μM) | NanoBRET Fold Response (VIPR2; VIPR2, tracer 1μM) | NanoBRET Fold Response (BRS3; BRS3, tracer 0.1μM) | NanoBRET Fold Response (BRS3; BRS3, tracer 1μM) | also measured
1 | COc1ccc2[nH]c(-c3ccc(CNC(=O)CCOCCOCCOCCOCCNC(=O)CCc4ccc5n4[B-](F)(F)[N+]4=C(c6ccc[nH]6)C=CC4=C5)cc3)c(CCNC(C)=O)c2n1 [AzomelatoninICO9-2-NB590] |  |  |  |  |  |  |  |  |  |  | NanoBRET Fold Response (VIPR2; 0.1μM tracer): 0.99; NanoBRET Fold Response (VIPR2; 1μM tracer): 1.12; NanoBRET Fold Response (HCRTR1; 0.1μM tracer): 0.60; NanoBRET Fold Response (HCRTR1; 1μM tracer): 0.95; NanoBRET Fold Response (BRS3; 0.1μM tracer): 0.86; NanoBRET Fold Response (BRS3; 1μM tracer): 0.91
2 | O=C(CCOCCOCCOCCOCCNC(=O)CCc1ccc2n1[B-](F)(F)[N+]1=C(c3ccc[nH]3)C=CC1=C2)NCCCN1CCN(C2=Nc3cc(Cl)ccc3Nc3ccccc32)CC1 [Clozapine-a-2-NB590] | 1.14 | 0.89 | 0.89 | 0.98 | 1.09 | 1.15 |  |  |  |  | 
3 | CN1CCN(C2=Nc3cc(Cl)ccc3Nc3ccc(CNC(=O)CCOCCOCCOCCOCCNC(=O)CCc4ccc5n4[B-](F)(F)[N+]4=C(c6ccc[nH]6)C=CC4=C5)cc32)CC1 [Clozapine-b-2-NB590] | 1.02 | 0.96 | 1.04 | 1.01 | 1.01 | 1.02 |  |  |  |  | 
4 | CN1CCN(C2=Nc3cc(Cl)ccc3N(CC(=O)NCCOCCOCCOCCOCCNC(=O)CCc3ccc4n3[B-](F)(F)[N+]3=C(c5ccc[nH]5)C=CC3=C4)c3ccccc32)CC1 [Clozapine-c-2-NB590] | 0.97 | 0.86 | 0.98 | 1.00 | 0.93 | 1.07 |  |  |  |  | 
5 | O=C(CCOCCOCCOCCOCCNC(=O)CCc1ccc2n1[B-](F)(F)[N+]1=C(c3ccc[nH]3)C=CC1=C2)NCCCN1CCN(C2=Nc3ccccc3Oc3ccc(Cl)cc32)CC1 [Loxapine-a-2-NB590] |  |  |  |  |  |  | 1.15 | 0.83 | 0.99 | 1.20 | NanoBRET Fold Response (HCRTR1; HCRTR1, tracer 0.1μM): 0.93; NanoBRET Fold Response (HCRTR1; HCRTR1, tracer 1μM): 1.09
6 | COc1ccccc1N1CCN(CCCCN2C(=O)c3ccc(CNC(=O)CCOCCOCCOCCOCCNC(=O)CCc4ccc5n4[B-](F)(F)[N+]4=C(c6ccc[nH]6)C=CC4=C5)cc3C2=O)CC1 [NAN-190-2-NB590] |  |  |  |  |  |  | 1.05 | 1.03 | 1.04 | 0.97 | 
7 | COc1ccccc1N1CCN(CCCCN2C(=O)c3ccc(CNC(=O)CCOCCNC(=O)c4ccc(CNC(=O)CCc5ccc6n5[B-](F)(F)[N+]5=C(c7ccc[nH]7)C=CC5=C6)cc4)cc3C2=O)CC1 [NAN-190-3-NB590] |  |  |  |  |  |  | 0.98 | 0.87 | 0.95 | 1.02 | NanoBRET Fold Response (HCRTR1; HCRTR1, tracer 0.1μM): 0.98; NanoBRET Fold Response (HCRTR1; HCRTR1, tracer 1μM): 0.91
